How the values were obtained:
RORγt [1] = target: T1, RORγt (Homo sapiens, UniProt P51449); experiment: RORγt binding test using fluorescent-labeled synthetic ligand (TR-FRET); settings: read-out: binding inhibitory rate of fluorescent-labeled synthetic ligand to RORγt at test compound 1 μM
T1 sequence (P51449 1-497 isoform P51449-2): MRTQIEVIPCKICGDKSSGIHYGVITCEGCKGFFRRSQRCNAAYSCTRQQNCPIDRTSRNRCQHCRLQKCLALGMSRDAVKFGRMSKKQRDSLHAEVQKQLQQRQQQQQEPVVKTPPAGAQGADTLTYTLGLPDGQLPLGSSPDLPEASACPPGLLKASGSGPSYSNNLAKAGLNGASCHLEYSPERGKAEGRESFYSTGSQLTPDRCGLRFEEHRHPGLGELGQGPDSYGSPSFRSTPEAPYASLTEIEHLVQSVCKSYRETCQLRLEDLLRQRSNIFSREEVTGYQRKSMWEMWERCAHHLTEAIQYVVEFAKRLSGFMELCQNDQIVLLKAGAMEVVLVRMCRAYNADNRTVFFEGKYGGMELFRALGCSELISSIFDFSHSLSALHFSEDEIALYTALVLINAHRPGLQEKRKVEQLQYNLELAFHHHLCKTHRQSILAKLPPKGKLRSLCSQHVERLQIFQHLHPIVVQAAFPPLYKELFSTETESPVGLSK
Method: RORγt Binding Test using Fluorescent-Labeled Synthetic Ligand
The binding activity of the test compound to RORγt was measured by a time resolved fluorescence resonance energy transfer method (TR-FRET) utilizing histidine-tagged RORγt, fluorescent-labeled synthetic ligand and terbium-labeled anti-histidine tag antibody (Invitrogen). First, a test compound diluted with an assay buffer (20 mM Tris-HCl (pH 7.5), 100 mM NaCl, 1 mM DTT, 0.1% BSA) was added to a 384 well plate by 3 μL. Then, RORγt diluted with an assay buffer to 240 nM was added by 3 μL, after which fluorescent-labeled synthetic ligand diluted with the assay buffer to 12 μM was added by 3 μL, and the mixture was stood at room temperature for 20 min. Thereafter, a terbium-labeled anti-histidine tag antibody diluted with the assay buffer to 8 nM was added by 3 μL. The mixture was stood at room temperature for 20 min, and fluorescence intensity (excitation wavelength 320 nm, fluorescence wavelength 520 nm, delay time 100 microseconds) was measured by Envision (PerkinElmer).

RORγt [2] = target: T1, RORγt; experiment: Cofactor recruitment test (Alpha Screen, biotinylated SRC-1 peptide); assay type: biochemical; settings: read-out: signal value inhibitory rate at test compound 1 μM
Method: Cofactor Recruitment Test
Cofactor recruitment test was performed by Alpha Screen (Histidine Detection Kit, PerkinElmer) method. First, a test compound was diluted with an assay buffer (50 mM Tris-HCl (pH 7.5), 50 mM KCl, 1 mM DTT, 0.1% BSA) and added to a 384 well plate by 5 μL. […] The mixture was stood in a dark place for 1 hr, and the signal value was measured by Envision (PerkinElmer).

RORγt [3] = target: T1, RORγt; experiment: Jurkat reporter test (human IL-17 ROR response element luciferase, RORγt vector); assay type: cell-based; settings: test compound 3 μM; Jurkat cells; read-out: luminescence level inhibitory rate at test compound 3 μM
Method: The Jurkat cells used for the reporter test were cultured in a culture medium (RPMI (Invitrogen), 10% FCS (AusGeneX), 100 U/mL penicillin, 100 μg/mL streptomycin). On the day of the test, 4×10^7 cells were recovered by a centrifugal operation (1000 rpm, 5 min.) and suspended in PBS (phosphate buffered saline) (Invitrogen). Thereafter, the cells were recovered again by a centrifugal operation, and suspended in 2 mL of R buffer (NEON transfection kit, Invitrogen). […] Gene transfer was performed by Electroporation apparatus (NEON, Invitrogen) under the conditions of pulse voltage 1350 V, interval 10 milliseconds, number of times 3. The cells after gene transfer were suspended in 40 mL of a reaction medium (RPMI, 10% Lipid reduced FCS (HyClone), 10 mM HEPES (pH 7.5), 100 U/mL penicillin, 100 μg/mL streptomycin, 5 μM lovastatin), and plated in a 96 well plate by 90 μL. A test compound diluted with the reaction medium was added by 10 μL, and the cells were cultured overnight in an incubator. Bright-Glo (Promega) was added by 100 μL, and the mixture was stirred at room temperature for 10 min, and the luminescence level was measured by Envision (PerkinElmer).

[4] = tested on: IL-17 production in human blood; experiment: Effect on IL-17 production in human blood; assay type: cell-based; settings: 72 h; 10 μM test compound; human peripheral blood, IL-23 and Dynabeads stimulation, 3 days; read-out: percent inhibition at 10 μM (IL-17 production)
Method: Effect on IL-17 Production in Human Blood
The inhibitory effect of the test compound on IL-17 production in human blood was evaluated as follows. First, 150 μL of peripheral blood collected from healthy individuals using heparinized vacuum blood collection tubes was dispensed into each well of a 96-well plate (Corning), and 45 μL of RPMI 1640 medium (Gibco) containing 10% fetal bovine serum (FBS, Hyclone) and 30 μL of the test compound diluted with the medium were added to each well. The plate was then cultured for 30 min at 37° C. The cells were subsequently stimulated by adding 30 μL of 100 ng/mL human IL-23 (R&D) and 45 μL of Dynabeads Human (Invitrogen) to each well and culturing the plate for 3 days at 37° C. In wells without stimulation, 75 μL of RPMI 1640 medium containing 10% FBS was added instead of the IL-23 and Dynabeads solution. After culturing for 3 days, the culture supernatant was collected, and the amount of IL-17 in the supernatant was measured using an IL-17 ELISA kit (R&D).
The results (percent inhibition of IL-17 production with 10 μM of the test compound) measured by the above-mentioned method are shown in Table 8.

IL-17A gene expression = experiment: Effect on IL-23-induced cytokine expression in mice; assay type: in vivo, mouse; settings: 10 mg/kg oral, 30 min before and 8 hr after IL-23; ear of Balb/c mice; versus the negative control group
Method: Effect on IL-23-Induced Cytokine Expression in Mice
A mouse IL-23 solution (500 ng/10 μL, prepared by Takeda Pharmaceutical Company Limited) or PBS (10 μL, negative control group) was administered intradermally in the ear of Balb/c mice (Charles River Japan, male, 7 weeks old). Twenty-four hr after administration, the ear was resected under isoflurane anesthesia. The test compound was suspended in 0.5% methylcellulose and administered orally 30 min before and 8 hr after IL-23 administration.
RNA extraction from the ear tissue and quantitative PCR were performed as follows. Specifically, ear tissue 5 mm in diameter was punched from an area of the resected ear centering on the IL-23 injection site, and the tissue was immersed in RNAlater (QIAGEN) for at least 18 hr. The RNAlater-treated ear tissue was homogenized in 350 μL of RLT buffer (RNeasy mini kit, QIAGEN) and treated (55° C., 10 min) with Proteinase K (QIAGEN). Total RNA was then extracted according to the RNeasy mini kit protocol. The RNA thus obtained was then reverse transcribed into cDNA using the High-Capacity RNA-to-cDNA kit (Applied Biosystems), and the amount of each gene expressions was measured by real-time PCR (Viia7™, Applied Biosystems). The PCR buffer used was TaqMan Fast Advanced Master Mix (Applied Biosystems), and TaqMan Gene Expression Assays (Applied Biosystems) Mm00439618_m1 (IL-17A) and 4352341E (β-actin) were used for each gene detection. The IL-17A gene expression level was normalized to the β-actin gene expression level, and the percent inhibition of IL-17A gene expression with the test compound was then calculated.
The results (percent inhibition of IL-17A gene expression with oral administration of the test compound) measured by the above-mentioned method are shown in Table 9.

| SMILES | inhibition at 1 µM (RORγt [1]) | inhibition at 1 µM (RORγt [2]) | inhibition at 3 µM (RORγt [3]) | inhibition at 10 µM [4] | percent inhibition of IL-17A gene expression (IL-17A gene expression) |
| --- | --- | --- | --- | --- | --- |
| CCOc1ccc2c(c1)CCN(C(=O)[C@H]1C[C@H](C(=O)O)C1)[C@H]2C(=O)Nc1cc(F)c([Si](C)(C)C)c(F)c1 [Example 9, trans-3-(((1R)-1-((3,5-difluoro-4-(trimethylsilyl)phenyl)carbamoyl)-6-ethoxy-3,4-dihydroisoquinolin-2(1H)-yl)carbonyl)cyclobutanecarboxylic acid] | 102% | 88% | 99% | 93.5% | 57% |
| COc1ccc2c(n1)CCN(C(=O)[C@H]1C[C@@H](CC(=O)O)C1)[C@H]2C(=O)Nc1cc(F)c([Si](C)(C)C)c(F)c1 [Example 23, (cis-3-(((5R)-5-((3,5-difluoro-4-(trimethylsilyl)phenyl)carbamoyl)-2-methoxy-7,8-dihydro-1,6-naphthyridin-6(5H)-yl)carbonyl)cyclobutyl)acetic acid] | 102% | 87% | 101% | 85.9% | 96% |
| COc1ccc2c(n1)CCN(C(=O)[C@H]1C[C@H](CC(=O)O)C1)[C@H]2C(=O)Nc1cc(F)c([Si](C)(C)C)c(F)c1 [Example 28, (trans-3-(((5R)-5-((3,5-difluoro-4-(trimethylsilyl)phenyl)carbamoyl)-2-methoxy-7,8-dihydro-1,6-naphthyridin-6(5H)-yl)carbonyl)cyclobutyl)acetic acid] | 102% | 87% | 101% | 89.1% | 91% |
| COc1ccc2c(c1)CCN(C(=O)[C@H]1C[C@@H]1CC(=O)O)[C@H]2C(=O)Nc1cc(F)c([Si](C)(C)C)c(F)c1 [Example 29, ((1R,2S)-2-(((1R)-1-((3,5-difluoro-4-(trimethylsilyl)phenyl)carbamoyl)-6-methoxy-3,4-dihydroisoquinolin-2(1H)-yl)carbonyl)cyclopropyl)acetic acid] | 102% | 91% | 102% | 74.9% | 73% |
| COc1ccc2c(n1)CCN(C(=O)[C@H]1C[C@@H](C(=O)O)C1)[C@H]2C(=O)Nc1cc(F)c([Si](C)(C)C)c(F)c1 [Example 31, cis-3-(((5R)-5-((3,5-difluoro-4-(trimethylsilyl)phenyl)carbamoyl)-2-methoxy-7,8-dihydro-1,6-naphthyridin-6(5H)-yl)carbonyl)cyclobutanecarboxylic acid] | 102% | 86% | 102% | 89.8% | 85% |
| COc1ccc2c(c1)CCN(C(=O)[C@H]1C[C@@H](CC(=O)O)C1)[C@H]2C(=O)Nc1ccc([Si](C)(C)C)c(F)c1 [Example 33, (cis-3-(((1R)-1-((3-fluoro-4-(trimethylsilyl)phenyl)carbamoyl)-6-methoxy-3,4-dihydroisoquinolin-2(1H)-yl)carbonyl)cyclobutyl)acetic acid] | 102% | 92% | 102% | 78.5% | 94% |

Source: US10093629B2, “Heterocyclic compounds and their use as retinoid-related orphan receptor (ROR) gamma-T inhibitors” (Takeda Pharmaceutical Company Limited, priority 2014, dated 2018)
